In US8215314B2, “Photochemical tissue bonding” (The General Hospital Corporation, priority 2000, dated 2012):

What was measured:
[1] = test system: corneal incision, rabbit eyes ex vivo; assay: IOP required to produce fluid leakage from corneal incision (IOPL) after PTB, ex vivo; conditions: 488 nm
[2] = test system: corneal incision, rabbit eyes ex vivo; assay: as above; conditions: for mean IOPL: 4.5 mM, 351 nm
Protocol: PTB can be used to seal or repair a tissue, e.g., a wound, e.g., a corneal wound. This example illustrates the experimental procedure designed to test the efficacy of PTB, as described herein, using mammalian corneas ex vivo. Experiments were performed according to the following procedure.
Rabbit eyes were received on ice (Pel-Freez Biologicals) approximately 17-24 hours after sacrifice and enucleation. The eyes were kept on ice and used the same day. The eye to be studied was mounted on a plastic-covered polystyrene block and fixed in position by needles inserted through the extraocular muscles into the polystyrene. The eye was then placed under a dissecting microscope (Reichert Scientific Instruments, Ill.) allowing visualization of the treated area during the entire procedure. A 27 G needle was inserted parallel to the iris, 2 mm anterior to the limbus into clear cornea, and positioned above the lens in the anterior chamber. The needle was connected to both a blood pressure transducer (Harvard Apparatus, Mass.) and a mini-infuser 400 (Bard Harvard) via a T coupler. The pressure transducer consists of a transducer element that is hard wired to an amplifier box and uses a semi-disposable dome with an integral silicone rubber membrane. Pressure inside the dome is transmitted through the membrane to a plastic button whose motion is translated to a voltage. The voltage generated by the transducer amplifier combination is proportional to the […] intraocular pressure (IOP). Signals from the transducer amplifier were recorded using a Macintosh G3 Power book equipped with a PCMICA (DAQCARD—1200) data acquisition card (National Instruments, Tex.). Data acquisition was controlled using programs written using the LabView 4 software package (National Instruments, Tex.). The voltage from the transducer and amplifier was converted to pressure by calibrating with a standing manometer.
Experiments on individual eyes were initiated by increasing the IOP to 30-40 mm Hg, using water infusion at a rate of 1 mL per minute. An incision was made in the cornea, 1 mm from the limbus and parallel to the iris, using a 3.5 mm angled keratome (Becton Dickinson Co.). For each eye the IOP required to produce fluid leakage from the incision (IOPL) was recorded pre- and post-PTB treatment. A photosensitizer, dissolved in phosphate buffer solution (PBS, pH 7.2, Gibco BRL) was applied to the walls of the incision using a Gastight, 50 μl syringe (Hamilton Co.) with a 27 G needle.
Irradiations employed a continuous wave (CW) argon-ion laser (Innova 100; Coherent, Inc., Palo Alto, Calif.) at 488 nm (for Fl and R-5-P), 514.5 nm (for RB) or 351 nm (for NHPT). An argon-ion-pumped dye laser (CR-599; Coherent) with 4-dicyanomethylene-2-methyl-6-(p-dimethylaminostyryl)-4H-pyran dye (Exciton, Inc., Dayton, Ohio) was used for irradiation at 661 nm (for MB). Laser light was coupled into a 1 mm diameter quartz fiber and a 1 cm diameter spot on the tissue was created by using a combination of 1 and 2 inch focal length, S1-UV grade fused silica, biconvex lenses (Esco Products), mounted in a SM1 series cage assembly (Thorlabs, N.J.). The 1 cm diameter circular spot was sufficient to cover the entire incision and the optics were adjusted so that the laser light was incident on the cornea at an angle approximately 45° to the plane of the incision. Dose response curves were obtained by varying the duration of the irradiation at a constant irradiance. In separate experiments the effects of laser irradiance were investigated by comparison of the same delivered dose using different irradiances. The doses used ranged from 124 to 1524 J/cm^2 and the irradiances used were 0.64, 1.27, 2.55 and 3.86 W/cm^2. The laser exposure time varied from 33 seconds for the lowest dose using the highest irradiance to 26 minutes, 27 seconds for the highest dose using the lowest irradiance. The IOPL was recorded immediately following treatment. […]

[3] = Absorption maxima and absorption coefficients of photosensitizers; assay type: physicochemical; conditions: for absorption coefficient at the laser wavelength used: RB at 514 nm, Fl at 488 nm, MB at 661 nm, R-5-P at 488 nm, N-HPT at 351 nm
Text: The photosensitizers were used as received with the exception of N-HPT which was recrystallized twice from aqueous ethanol before use.

Row | Structure (SMILES) | IOPL ([1]; 0.6 mM Fl, 762 J/cm^2 at 3.82 W/cm^2) | mean IOPL ([2]; 0.64 W/cm2, 254 J/cm2) | mean IOPL ([2]; 0.64 W/cm2, 508 J/cm2) | absorption maximum [3] | absorption coefficient at the laser wavelength used [3] | post PTB treatment IOPL value ([1]; 11 mM R-5-P, 762 and 1016 J/cm^2, 1.27-3.82 W/cm^2, p<0.05) | post-treatment IOPL ([2]; MB 3 mM, 661 nm, 0.64 W/cm^2, doses 508, 762 and 1016 J/cm^2)
1 | O=C1OC2(c3ccc(O)cc3Oc3cc(O)ccc32)c2ccccc21 [Fl, fluorescein] | 116±40 mm Hg | – | – | – | – | – | –
2 | On1ccccc1=S [N-HPT, N-hydroxypyridine-2-(1H)-thione] | – | 60±23 mm Hg | 126±40 mm Hg | 314 nm | 2110 dm^3 mol^−1 cm^−1 | – | –
3 | Cc1cc2nc3c(=O)[nH]c(=O)nc-3n(C[C@H](O)[C@H](O)[C@H](O)COP(=O)(O)O)c2cc1C [R-5-P, riboflavin-5-phosphate] | – | – | – | 445 nm | 4330 dm^3 mol^−1 cm^−1 | significantly increased | –
4 | CN(C)c1ccc2nc3ccc(=[N+](C)C)cc-3sc2c1 [MB, methylene blue] | – | – | – | 664 nm | 15600 dm^3 mol^−1 cm^−1 | – | did not increase
